In US9464082B2, “Aryl and arylalkyl substituted pyrazolyl and pyrimidinyl tricyclic enones as antioxidant inflammation modulators” (AbbVie Inc., priority 2014, dated 2016):

Test system: IFNγ-Induced NO Production
Experiment: Nitric Oxide Suppression Assay (Suppression of IFNγ-Induced NO Production)
Assay type: cell-based
Conditions: RAW264.7; RAW 264.7 mouse macrophage cells; 2 hour pre-treatment with compound (3 μM to 0.3 nM, 10 point curve); 20 ng/mL interferon gamma, ~18 hour; Griess detection; n=2-3 in duplicates
How it was run: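 Mouse RAW 264.7 macrophages pre-treated 2 h at 37 °C with compound (3 μM to 0.3 nM, 10 points; DMSO ≤1%), then stimulated with 20 ng/mL interferon gamma for ~18 h. Supernatant nitrite measured by Griess reaction, absorbance 520–550 nm. IC50 from curve fit of signal normalised to IFNγ alone, mean n=2-3 in duplicate.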

Row | SMILES | IC50 [nM]
1 | CCCNC(=O)c1cccc([C@]23C=C(C#N)C(=O)[C@@H](C)[C@@H]2CCc2cncnc23)c1 [Example 96, 3-[(6aS,7S,10aR)-9-cyano-7-methyl-8-oxo-6,6a,7,8-tetrahydrobenzo[h]quinazolin-10a(5H)-yl]-N-propylbenzamide] | 78.2
2 | C[C@@H]1C(=O)C(C#N)=C[C@]2(c3ccccc3)c3nn(C)c(-c4ccnnc4)c3CC[C@@H]12 [Example 97, (5aS,6S,9aR)-2,6-dimethyl-7-oxo-9a-phenyl-3-(pyridazin-4-yl)-4,5,5a,6,7,9a-hexahydro-2H-benzo[g]indazole-8-carbonitrile] | 15
3 | COC(=O)n1cc(-c2nc(C)nc3c2CC[C@H]2[C@H](C)C(=O)C(C#N)=C[C@]32c2ccccc2)cn1 [Example 98, methyl 4-[(6aS,7S,10aR)-9-cyano-2,7-dimethyl-8-oxo-10a-phenyl-5,6,6a,7,8,10a-hexahydrobenzo[h]quinazolin-4-yl]-1H-pyrazole-1-carboxylate] | 1.5
4 | COC(=O)c1cccc([C@]23C=C(C#N)C(=O)[C@@H](C)[C@@H]2CCc2cnc(-c4ccccc4)nc23)c1 [Example 99, methyl 3-[(6aS,7S,10aR)-9-cyano-7-methyl-8-oxo-2-phenyl-6,6a,7,8-tetrahydrobenzo[h]quinazolin-10a(5H)-yl]benzoate] | 23.4
5 | C[C@@H]1C(=O)C(C#N)=C[C@]2(c3cccc(C(=O)O)c3)c3nc(-c4ccccc4)ncc3CC[C@@H]12 [Example 100, 3-[(6aS,7S,10aR)-9-cyano-7-methyl-8-oxo-2-phenyl-6,6a,7,8-tetrahydrobenzo[h]quinazolin-10a(5H)-yl]benzoic acid] | 426
6 | COC(=O)c1ccc(-c2ncc3c(n2)[C@@]2(c4cccc(C(=O)OC)c4)C=C(C#N)C(=O)[C@@H](C)[C@@H]2CC3)cc1 [Example 101, methyl 3-[(6aS,7S,10aR)-9-cyano-2-[4-(methoxycarbonyl)phenyl]-7-methyl-8-oxo-6,6a,7,8-tetrahydrobenzo[h]quinazolin-10a(5H)-yl]benzoate] | 45.6
7 | COc1nc(Cl)nc2c1CC[C@H]1[C@H](C)C(=O)C(C#N)=C[C@]21c1ccccc1 [Example 102, (6aS,7S,10aR)-2-chloro-4-methoxy-7-methyl-8-oxo-10a-phenyl-5,6,6a,7,8,10a-hexahydrobenzo[h]quinazoline-9-carbonitrile] | 3.97
8 | COc1nc(OC)c2c(n1)[C@@]1(c3ccccc3)C=C(C#N)C(=O)[C@@H](C)[C@@H]1CC2 [Example 103, (6aS,7S,10aR)-2,4-dimethoxy-7-methyl-8-oxo-10a-phenyl-5,6,6a,7,8,10a-hexahydrobenzo[h]quinazoline-9-carbonitrile] | 4.4
9 | C[C@@H]1C(=O)C(C#N)=C[C@]2(c3cccc(C(=O)O)c3)c3nc(-c4ccc(C(=O)O)cc4)ncc3CC[C@@H]12 [Example 104, 3-[(6aS,7S,10aR)-2-(4-carboxyphenyl)-9-cyano-7-methyl-8-oxo-6,6a,7,8-tetrahydrobenzo[h]quinazolin-10a(5H)-yl]benzoic acid] | 924
10 | C[C@@H]1C(=O)C(C#N)=C[C@]2(c3ccccc3)C3=NN(C)[C@@H](c4ccccc4)[C@H]3CC[C@@H]12 [Example 105, (3R,3aR,5aS,6S,9aR)-2,6-dimethyl-7-oxo-3,9a-diphenyl-3,3a,4,5,5a,6,7,9a-octahydro-2H-benzo[g]indazole-8-carbonitrile] | 34.5
11 | C[C@@H]1C(=O)C(C#N)=C[C@]2(c3ccccc3)c3n[nH]c(-c4ccc(N)nc4)c3CC[C@@H]12 [Example 106, (5aS,6S,9aR)-3-(6-aminopyridin-3-yl)-6-methyl-7-oxo-9a-phenyl-4,5,5a,6,7,9a-hexahydro-2H-benzo[g]indazole-8-carbonitrile] | 8.77
12 | Cc1nc(-c2ccc3nccn3c2)c2c(n1)[C@@]1(c3ccccc3)C=C(C#N)C(=O)[C@@H](C)[C@@H]1CC2 [Example 107, (6aS,7S,10aR)-4-(imidazo[1,2-a]pyridin-6-yl)-2,7-dimethyl-8-oxo-10a-phenyl-5,6,6a,7,8,10a-hexahydrobenzo[h]quinazoline-9-carbonitrile] | 10.7
13 | Cc1nc(-c2ccc(O)cc2)c2c(n1)[C@@]1(c3ccccc3)C=C(C#N)C(=O)[C@@H](C)[C@@H]1CC2 [Example 108, (6aS,7S,10aR)-4-(4-hydroxyphenyl)-2,7-dimethyl-8-oxo-10a-phenyl-5,6,6a,7,8,10a-hexahydrobenzo[h]quinazoline-9-carbonitrile] | 3.63
14 | Cc1nc(-c2cccc(O)c2)c2c(n1)[C@@]1(c3ccccc3)C=C(C#N)C(=O)[C@@H](C)[C@@H]1CC2 [Example 109, (6aS,7S,10aR)-4-(3-hydroxyphenyl)-2,7-dimethyl-8-oxo-10a-phenyl-5,6,6a,7,8,10a-hexahydrobenzo[h]quinazoline-9-carbonitrile] | 2.87
15 | Cc1nc(-c2cccc(CCCO)c2)c2c(n1)[C@@]1(c3ccccc3)C=C(C#N)C(=O)[C@@H](C)[C@@H]1CC2 [Example 110, (6aS,7S,10aR)-4-[3-(3-hydroxypropyl)phenyl]-2,7-dimethyl-8-oxo-10a-phenyl-5,6,6a,7,8,10a-hexahydrobenzo[h]quinazoline-9-carbonitrile] | 1.55
16 | C[C@@H]1C(=O)C(C#N)=C[C@]2(c3ccccc3)c3nc(-c4cc(Br)ccc4O)ncc3CC[C@@H]12 [Example 111, (6aS,7S,10aR)-2-(5-bromo-2-hydroxyphenyl)-7-methyl-8-oxo-10a-phenyl-5,6,6a,7,8,10a-hexahydrobenzo[h]quinazoline-9-carbonitrile] | 12.3
17 | C[C@@H]1C(=O)C(C#N)=C[C@]2(c3ccccc3)c3n[nH]c(-c4ccc(NS(C)(=O)=O)cc4)c3CC[C@@H]12 [Example 112, N-{4-[(5aS,6S,9aR)-8-cyano-6-methyl-7-oxo-9a-phenyl-4,5,5a,6,7,9a-hexahydro-2H-benzo[g]indazol-3-yl]phenyl}methanesulfonamide] | 66.4
18 | C[C@@H]1C(=O)C(C#N)=C[C@]2(c3ccccc3)c3n[nH]c(-c4cccc(NS(C)(=O)=O)c4)c3CCC12 (stereo partly drawn) [Example 113, N-{3-[(6S,9aR)-8-cyano-6-methyl-7-oxo-9a-phenyl-4,5,5a,6,7,9a-hexahydro-2H-benzo[g]indazol-3-yl]phenyl}methanesulfonamide] | 43
19 | C[C@@H]1C(=O)C(C#N)=C[C@]2(c3ccccc3)c3nc(-c4ccc(O)cc4)ncc3CC[C@@H]12 [Example 114, (6aS,7S,10aR)-2-(4-hydroxyphenyl)-7-methyl-8-oxo-10a-phenyl-5,6,6a,7,8,10a-hexahydrobenzo[h]quinazoline-9-carbonitrile] | 5
20 | C[C@@H]1C(=O)C(C#N)=C[C@]2(c3ccccc3)c3n[nH]c(-c4ccc(CCO)cc4)c3CC[C@@H]12 [Example 115, (5aS,6S,9aR)-3-[4-(2-hydroxyethyl)phenyl]-6-methyl-7-oxo-9a-phenyl-4,5,5a,6,7,9a-hexahydro-2H-benzo[g]indazole-8-carbonitrile] | 23.6
21 | C[C@@H]1C(=O)C(C#N)=C[C@]2(c3ccccc3)c3n[nH]c(-c4cccc(CCO)c4)c3CC[C@@H]12 [Example 116, (5aS,6S,9aR)-3-[3-(2-hydroxyethyl)phenyl]-6-methyl-7-oxo-9a-phenyl-4,5,5a,6,7,9a-hexahydro-2H-benzo[g]indazole-8-carbonitrile] | 9.25
22 | C[C@@H]1C(=O)C(C#N)=C[C@]2(c3ccccc3)c3n[nH]c(-c4cnn(CCO)c4)c3CC[C@@H]12 [Example 117, (5aS,6S,9aR)-3-[1-(2-hydroxyethyl)-1H-pyrazol-4-yl]-6-methyl-7-oxo-9a-phenyl-4,5,5a,6,7,9a-hexahydro-2H-benzo[g]indazole-8-carbonitrile] | 17.4
23 | Cc1nc(-c2cccc(-c3ccc(N)cc3)c2)c2c(n1)[C@@]1(c3ccccc3)C=C(C#N)C(=O)[C@@H](C)[C@@H]1CC2 [Example 118, (6aS,7S,10aR)-4-(4′-aminobiphenyl-3-yl)-2,7-dimethyl-8-oxo-10a-phenyl-5,6,6a,7,8,10a-hexahydrobenzo[h]quinazoline-9-carbonitrile] | 4.62
24 | Cc1nc(-c2cccc(-c3ccc(O)cc3)c2)c2c(n1)[C@@]1(c3ccccc3)C=C(C#N)C(=O)[C@@H](C)[C@@H]1CC2 [Example 119, (6aS,7S,10aR)-4-(4′-hydroxybiphenyl-3-yl)-2,7-dimethyl-8-oxo-10a-phenyl-5,6,6a,7,8,10a-hexahydrobenzo[h]quinazoline-9-carbonitrile] | 6.5
25 | C[C@@H]1C(=O)C(C#N)=C[C@]2(c3ccc(OCc4ccccc4)cc3)c3ncncc3CC[C@@H]12 [Example 120, (6aS,7S,10aR)-10a-[4-(benzyloxy)phenyl]-7-methyl-8-oxo-5,6,6a,7,8,10a-hexahydrobenzo[h]quinazoline-9-carbonitrile] | 5.44
26 | C[C@@H]1C(=O)C(C#N)=C[C@]2(c3ccc(O)cc3)c3ncncc3CC[C@@H]12 [Example 121, (6aS,7S,10aR)-10a-(4-hydroxyphenyl)-7-methyl-8-oxo-5,6,6a,7,8,10a-hexahydrobenzo[h]quinazoline-9-carbonitrile] | 8.47
27 | Cc1nc(-c2ccc(-c3ccncc3)cc2)c2c(n1)[C@@]1(c3ccccc3)C=C(C#N)C(=O)[C@@H](C)[C@@H]1CC2 [Example 122, (6aS,7S,10aR)-2,7-dimethyl-8-oxo-10a-phenyl-4-[4-(pyridin-4-yl)phenyl]-5,6,6a,7,8,10a-hexahydrobenzo[h]quinazoline-9-carbonitrile] | 12.7
28 | C[C@@H]1C(=O)C(C#N)=C[C@]2(c3ccccc3)c3n[nH]c(-c4cccc(CCCO)c4)c3CC[C@@H]12 [Example 123, (5aS,6S,9aR)-3-[3-(3-hydroxypropyl)phenyl]-6-methyl-7-oxo-9a-phenyl-4,5,5a,6,7,9a-hexahydro-2H-benzo[g]indazole-8-carbonitrile] | 7.72
